These molecules were tested against Alpha-glucosidase MAL12 (Saccharomyces cerevisiae (strain ATCC 204508 / S288c), UniProt P53341) (assay: Baker's Yeast alpha-Glucosidase Inhibition Assay). Conditions: pH 6.8; 37 °C.
Sequence of Alpha-glucosidase MAL12 (P53341 whole entry): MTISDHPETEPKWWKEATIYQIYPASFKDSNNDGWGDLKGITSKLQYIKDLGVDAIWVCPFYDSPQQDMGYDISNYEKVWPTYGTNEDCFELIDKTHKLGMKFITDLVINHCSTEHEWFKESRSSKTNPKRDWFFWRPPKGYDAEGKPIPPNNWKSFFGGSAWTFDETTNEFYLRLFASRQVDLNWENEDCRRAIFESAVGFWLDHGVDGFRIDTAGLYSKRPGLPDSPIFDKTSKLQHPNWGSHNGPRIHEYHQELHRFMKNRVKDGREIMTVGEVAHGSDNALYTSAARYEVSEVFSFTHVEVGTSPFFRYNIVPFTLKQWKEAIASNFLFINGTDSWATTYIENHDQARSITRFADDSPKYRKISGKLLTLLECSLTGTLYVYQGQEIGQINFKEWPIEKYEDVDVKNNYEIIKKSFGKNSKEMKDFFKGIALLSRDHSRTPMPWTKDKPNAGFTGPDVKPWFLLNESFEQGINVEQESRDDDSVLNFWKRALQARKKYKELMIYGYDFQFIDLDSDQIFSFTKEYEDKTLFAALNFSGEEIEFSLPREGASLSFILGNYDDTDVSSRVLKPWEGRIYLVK
Description: The enzyme inhibition was evaluated according to the method previously reported by Taha et al. with slight modification. Various concentration of test compounds (10 uL) were dissolved in DMSO (ranging from 200 to 6.25 ug/mL) and premixed with 95 uL of 50 mM phosphate buffer (pH 6.8). Then, 25 uL of enzyme (0.0625 U/mL) in phosphate buffer saline was added into each well and the plate was incubated at 37 °C for 10 min. Afterward, 25 uL of PNPG in phosphate buffer saline (5 mM) were added and pre-read of the plate was taken by using a microplate reader (Spectrostar Nano BMG Labtech, Germany). The reaction mixture was then incubated at 37 °C for 30 min and change in absorbance at 405 nm was monitored up to 30 min. For negative control, the test samples were replaced with 10 uL of DMSO and acarbose was used as positive control. All experiments were triplicated and the results were expressed as the mean +/- S.E.M of three determinations.
`O=c1oc2ccccc2c(O)c1C(c1ccc(NC(=S)Nc2ccccc2Br)cc1)c1c(O)c2ccccc2oc1=O` [1-(4-(bis(4-Hydroxy-2-oxo-2H-chromen-3-yl)methyl)phenyl)-3-(2-bromophenyl)-thiourea (1)] was tested, and the IC50 was 37.4 µM. `O=c1oc2ccccc2c(O)c1C(c1ccc(NC(=S)Nc2ccccc2F)cc1)c1c(O)c2ccccc2oc1=O` [1-(4-(bis(4-Hydroxy-2-oxo-2H-chromen-3-yl)methyl)phenyl)-3-(2-fluorophenyl)-thiourea (7)] was tested, and the IC50 was 91.3 µM. `O=c1oc2ccccc2c(O)c1C(c1ccc(NC(=S)Nc2cccc(Br)c2)cc1)c1c(O)c2ccccc2oc1=O` [1-(4-(bis(4-Hydroxy-2-oxo-2H-chromen-3-yl)methyl)phenyl)-3-(3-bromophenyl)-thiourea (2)] was tested, and the IC50 was 35.9 µM. `O=c1oc2ccccc2c(O)c1C(c1ccc(NC(=S)Nc2cccc(F)c2)cc1)c1c(O)c2ccccc2oc1=O` [1-(4-(bis(4-Hydroxy-2-oxo-2H-chromen-3-yl)methyl)phenyl)-3-(3-fluorophenyl)-thiourea (8)] was tested, and the IC50 was 55.1 µM. `O=c1oc2ccccc2c(O)c1C(c1ccc(NC(=S)Nc2cccc([N+](=O)[O-])c2)cc1)c1c(O)c2ccccc2oc1=O` [1-(4-(bis(4-Hydroxy-2-oxo-2H-chromen-3-yl)methyl)phenyl)-3-(3-nitrophenyl)-thiourea (17)] showed an IC50 of 51 µM. Molecule `O=c1oc2ccccc2c(O)c1C(c1ccc(NC(=S)Nc2ccc(Br)cc2)cc1)c1c(O)c2ccccc2oc1=O` [1-(4-(bis(4-Hydroxy-2-oxo-2H-chromen-3-yl)methyl)phenyl)-3-(4-bromophenyl)-thiourea (3)] has an IC50 of 39 µM. Molecule `O=c1oc2ccccc2c(O)c1C(c1ccc(NC(=S)Nc2ccc(F)cc2)cc1)c1c(O)c2ccccc2oc1=O` [1-(4-(bis(4-Hydroxy-2-oxo-2H-chromen-3-yl)methyl)phenyl)-3-(4-fluorophenyl)-thiourea (9)] has an IC50 of 53.4 µM. Work on `O=c1oc2ccccc2c(O)c1C(c1ccc(NC(=S)Nc2ccc([N+](=O)[O-])cc2)cc1)c1c(O)c2ccccc2oc1=O` [1-(4-(bis(4-Hydroxy-2-oxo-2H-chromen-3-yl)methyl)phenyl)-3-(4-nitrophenyl) thiourea (18)] yielded an IC50 of 24.7 µM.
